Each structure is given as a SMILES string.

Among the targets are Carbonic anhydrase 9 (Homo sapiens, UniProt Q16790); Carbonic anhydrase 4 (Homo sapiens, UniProt P22748); Carbonic anhydrase 1 (Homo sapiens, UniProt P00915); Carbonic anhydrase 2 (Homo sapiens, UniProt P00918).
In experiment [1] the target is Carbonic anhydrase 5A, mitochondrial (Homo sapiens, UniProt P35218).
Sequence of Carbonic anhydrase 5A, mitochondrial (P35218 whole entry): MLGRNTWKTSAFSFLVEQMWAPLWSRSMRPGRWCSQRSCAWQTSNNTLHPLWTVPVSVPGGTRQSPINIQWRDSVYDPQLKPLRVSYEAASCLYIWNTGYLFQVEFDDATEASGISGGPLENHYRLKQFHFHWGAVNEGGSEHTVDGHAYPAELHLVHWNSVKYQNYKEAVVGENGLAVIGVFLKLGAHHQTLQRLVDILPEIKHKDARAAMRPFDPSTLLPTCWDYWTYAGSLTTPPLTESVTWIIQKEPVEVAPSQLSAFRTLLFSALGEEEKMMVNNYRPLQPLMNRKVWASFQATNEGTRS

Sequence of Carbonic anhydrase 4 (P22748 whole entry): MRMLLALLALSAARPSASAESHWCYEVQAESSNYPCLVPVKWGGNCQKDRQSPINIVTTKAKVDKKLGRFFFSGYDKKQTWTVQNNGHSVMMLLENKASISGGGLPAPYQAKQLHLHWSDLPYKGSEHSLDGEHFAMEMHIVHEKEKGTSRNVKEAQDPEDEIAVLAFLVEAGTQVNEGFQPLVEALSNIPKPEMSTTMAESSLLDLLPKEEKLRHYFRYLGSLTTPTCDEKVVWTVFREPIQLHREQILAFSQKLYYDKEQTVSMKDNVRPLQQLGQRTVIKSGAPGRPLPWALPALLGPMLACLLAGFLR
Sequence of Carbonic anhydrase 1 (P00915 whole entry): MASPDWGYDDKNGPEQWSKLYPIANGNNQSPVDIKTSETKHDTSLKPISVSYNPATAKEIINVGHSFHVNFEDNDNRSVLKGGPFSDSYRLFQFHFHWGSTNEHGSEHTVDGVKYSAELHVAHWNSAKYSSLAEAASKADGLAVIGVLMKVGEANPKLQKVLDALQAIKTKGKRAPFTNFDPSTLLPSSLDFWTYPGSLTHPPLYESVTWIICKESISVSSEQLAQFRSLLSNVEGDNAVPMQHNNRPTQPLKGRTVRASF

For `O=C(O)O` [BICARBONATE], the inhibition constant (Ki) (in general, the dissociation constant of the complex between target and ligand, obtained from inhibition or displacement) on Carbonic anhydrase 9 worked out at 0.0086 mM; in experiment [1], 95 mM.

Turning to `[O-][Br+2]([O-])O` [BROMATE], the Ki stood at 128 mM at Carbonic anhydrase 4; 274 mM at Carbonic anhydrase 9; 4.79 mM on Carbonic anhydrase 1; 11.3 mM in experiment [1]; 12 mM on Carbonic anhydrase 2.

As to `[O-][Cl+2]([O-])O` [CHLORATE], the inhibition constant Ki stood at 64.9 mM at Carbonic anhydrase 4; 147 mM at Carbonic anhydrase 9; 0.54 mM on Carbonic anhydrase 1; 7.12 mM in experiment [1]; 0.85 mM on Carbonic anhydrase 2.

Consider `O=[N+]([O-])O` [NITRIC ACID], for which the Ki in experiment [1] turned out to be 16 mM.

On to `[O-][Cl+3]([O-])([O-])O` [PERCHLORATE], for which the Ki on Carbonic anhydrase 4 was 767 mM; at Carbonic anhydrase 9 it was 11.6 mM; at Carbonic anhydrase 1, 0.69 mM; in experiment [1] it was 13.6 mM.

Consider `[O-][I+3]([O-])([O-])O` [PERIODATE], for which the Ki came out at 226 mM at Carbonic anhydrase 4; 30.3 mM on Carbonic anhydrase 9; 14.6 mM at Carbonic anhydrase 1; 15.7 mM in experiment [1]; 75.8 mM at Carbonic anhydrase 2.

For the compound `NS(=O)(=O)O` [SULFAMATE], the Ki on Carbonic anhydrase 9 is 0.0092 mM; in experiment [1] it was 0.12 mM.

As for `O=S(=O)(O)O` [SULFURIC ACID], the Ki at Carbonic anhydrase 9 was determined as 154 mM; in experiment [1] it was 680 mM.

The values are drawn from ChEMBL document CHEMBL1144269, “Carbonic anhydrase inhibitors. Inhibition of isozymes I, II, IV, V, and IX with anions isosteric and isoelectronic with sulfate, nitrate, and carbonate” (Bioorg Med Chem Lett, 2005).
